Measured values: PubChem BioAssay (NCI)
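Values below derive from 48-hour exposures of cells grown in 96-well plates, with endpoints linearly interpolated between the two concentrations bracketing the appropriate inhibition level. The concentration for 50% growth inhibition is given as GI50. TGI: concentration producing complete growth inhibition.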

How the values were obtained:
Experiment in all cases: NCI tumour cell line growth inhibition, 48 h
SK-MEL-28 melanoma = test system: SK-MEL-28 melanoma
MOLT-4 leukemia = test system: MOLT-4 leukemia
SW-620 colon = test system: SW-620 colon
OVCAR-3 ovarian = test system: OVCAR-3 ovarian
COLO 205 colon = test system: COLO 205 colon
MCF7 breast = test system: MCF7 breast
UO-31 renal = test system: UO-31 renal
KM12 colon = test system: KM12 colon
SN12C renal = test system: SN12C renal
HS 578T breast = test system: HS 578T breast
LOX IMVI melanoma = test system: LOX IMVI melanoma
SF-268 CNS = test system: SF-268 CNS
786-0 renal = test system: 786-0 renal
EKVX NSCLC = test system: EKVX NSCLC
TK-10 renal = test system: TK-10 renal
CAKI-1 renal = test system: CAKI-1 renal
A498 renal = test system: A498 renal
SK-MEL-2 melanoma = test system: SK-MEL-2 melanoma
K-562 leukemia = test system: K-562 leukemia
A549 NSCLC = test system: A549 NSCLC
HT29 colon = test system: HT29 colon
RXF 393 renal = test system: RXF 393 renal
HCT-15 colon = test system: HCT-15 colon
DU-145 prostate = test system: DU-145 prostate
M14 melanoma = test system: M14 melanoma
HCT-116 colon = test system: HCT-116 colon
PC-3 prostate = test system: PC-3 prostate
IGROV1 ovarian = test system: IGROV1 ovarian
NCI-H460 lung = test system: NCI-H460 lung
UACC-62 melanoma = test system: UACC-62 melanoma
BT-549 breast = test system: BT-549 breast
MDA-MB-231 breast = test system: MDA-MB-231 breast
NCI-H226 lung = test system: NCI-H226 lung
SF-295 CNS = test system: SF-295 CNS
NCI-H522 lung = test system: NCI-H522 lung
U251 CNS = test system: U251 CNS
OVCAR-4 ovarian = test system: OVCAR-4 ovarian
ACHN renal = test system: ACHN renal
SF-539 CNS = test system: SF-539 CNS
OVCAR-5 ovarian = test system: OVCAR-5 ovarian
MDA-MB-435 = test system: MDA-MB-435
HL-60(TB) leukemia = test system: HL-60(TB) leukemia
SNB-75 CNS = test system: SNB-75 CNS
SR leukemia = test system: SR leukemia
UACC-257 melanoma = test system: UACC-257 melanoma
SNB-19 CNS = test system: SNB-19 CNS
RPMI-8226 leukemia = test system: RPMI-8226 leukemia
SK-MEL-5 melanoma = test system: SK-MEL-5 melanoma
OVCAR-8 ovarian = test system: OVCAR-8 ovarian
CCRF-CEM leukemia = test system: CCRF-CEM leukemia
HOP-62 NSCLC = test system: HOP-62 NSCLC
MALME-3M melanoma = test system: MALME-3M melanoma
NCI-H23 lung = test system: NCI-H23 lung
HCC-2998 colon = test system: HCC-2998 colon
SK-OV-3 ovarian = test system: SK-OV-3 ovarian
HOP-92 NSCLC = test system: HOP-92 NSCLC
NCI/ADR-RES ovarian = test system: NCI/ADR-RES ovarian

## CCCN1C(=O)/C(=C/c2cccc(O)c2)SC1=Nc1ccc(OC)cc1
SK-MEL-28 melanoma
  GI50: 10.2 µM
  TGI: 20.2 µM
MOLT-4 leukemia
  GI50: 4.7 µM
  TGI: > 50 µM
SW-620 colon
  GI50: 9.78 µM
  TGI: 17.3 µM
OVCAR-3 ovarian
  GI50: 10.2 µM
  TGI: 21.1 µM
COLO 205 colon
  GI50: 11.1 µM
  TGI: 25.2 µM
MCF7 breast
  GI50: 10.9 µM
  TGI: 29.2 µM
UO-31 renal
  GI50: 13.5 µM
  TGI: > 50 µM
KM12 colon
  GI50: 6.77 µM
  TGI: 16.5 µM
SN12C renal
  GI50: 9.17 µM
  TGI: 17.5 µM
HS 578T breast
  GI50: 16.5 µM
  TGI: 34.1 µM
LOX IMVI melanoma
  GI50: 7.9 µM
  TGI: 15.2 µM
SF-268 CNS
  GI50: 9.65 µM
  TGI: 20.8 µM
786-0 renal
  GI50: 8.63 µM
  TGI: 16.4 µM
EKVX NSCLC
  GI50: 9.5 µM
  TGI: 17.2 µM
TK-10 renal
  GI50: 9.62 µM
  TGI: 19.5 µM
CAKI-1 renal
  GI50: 9.86 µM
  TGI: 20.5 µM
A498 renal
  GI50: 8.81 µM
  TGI: 16.5 µM
SK-MEL-2 melanoma
  GI50: 31.9 µM
  TGI: > 50 µM
K-562 leukemia
  GI50: 2.8 µM
  TGI: 22.3 µM
A549 NSCLC
  GI50: 9.11 µM
  TGI: 18.3 µM
HT29 colon
  GI50: 8.98 µM
  TGI: 19.7 µM
RXF 393 renal
  GI50: 9.3 µM
  TGI: 19.3 µM
HCT-15 colon
  GI50: 7.76 µM
  TGI: 16.2 µM
DU-145 prostate
  GI50: 7.93 µM
  TGI: 15.3 µM
M14 melanoma
  GI50: 12.9 µM
  TGI: 21.3 µM
HCT-116 colon
  GI50: 7.35 µM
  TGI: 13.9 µM
PC-3 prostate
  GI50: 6.59 µM
  TGI: 13.2 µM
IGROV1 ovarian
  GI50: 29.5 µM
  TGI: > 50 µM
NCI-H460 lung
  GI50: 13.5 µM
  TGI: > 50 µM
UACC-62 melanoma
  GI50: 10.3 µM
  TGI: 18.1 µM
BT-549 breast
  GI50: 8.08 µM
  TGI: 15.6 µM
MDA-MB-231 breast
  GI50: 7.86 µM
  TGI: 16 µM
NCI-H226 lung
  GI50: 13.3 µM
  TGI: 27.6 µM
SF-295 CNS
  GI50: 11.5 µM
  TGI: 23.3 µM
NCI-H522 lung
  GI50: 23.4 µM
  TGI: > 50 µM
U251 CNS
  GI50: 7.87 µM
  TGI: 14.6 µM
OVCAR-4 ovarian
  GI50: 8.18 µM
  TGI: 18.8 µM
ACHN renal
  GI50: 8.08 µM
  TGI: 15.3 µM
SF-539 CNS
  GI50: 8.25 µM
  TGI: 15.7 µM
OVCAR-5 ovarian
  GI50: 7.94 µM
  TGI: 14.8 µM
MDA-MB-435
  GI50: 10.8 µM
  TGI: 22 µM
HL-60(TB) leukemia
  GI50: 4.09 µM
  TGI: > 50 µM
SNB-75 CNS
  GI50: 11.7 µM
  TGI: 22.8 µM
SR leukemia
  GI50: 6.04 µM
  TGI: > 50 µM
UACC-257 melanoma
  GI50: 9.48 µM
  TGI: 17.1 µM
SNB-19 CNS
  GI50: 9.5 µM
  TGI: 19.3 µM
RPMI-8226 leukemia
  GI50: 5.61 µM
  TGI: 15.7 µM
SK-MEL-5 melanoma
  GI50: 7.28 µM
  TGI: 15.1 µM
OVCAR-8 ovarian
  GI50: 10.7 µM
  TGI: 22.2 µM

## O=S(=O)(O)c1ccc(N=Nc2ccc(N=Nc3c(O)ccc4ccccc34)c(S(=O)(=O)O)c2)cc1
SK-MEL-28 melanoma
  TGI: > 100 µM
CCRF-CEM leukemia
  TGI: > 100 µM
MOLT-4 leukemia
  TGI: > 100 µM
SW-620 colon
  TGI: > 100 µM
OVCAR-3 ovarian
  TGI: > 100 µM
COLO 205 colon
  TGI: > 100 µM
HOP-62 NSCLC
  TGI: > 100 µM
MCF7 breast
  TGI: > 100 µM
UO-31 renal
  TGI: > 100 µM
MALME-3M melanoma
  TGI: > 100 µM
KM12 colon
  TGI: > 100 µM
HS 578T breast
  TGI: > 100 µM
SF-268 CNS
  TGI: > 100 µM
786-0 renal
  TGI: > 100 µM
NCI-H23 lung
  TGI: > 100 µM
EKVX NSCLC
  TGI: > 100 µM
TK-10 renal
  TGI: > 100 µM
CAKI-1 renal
  TGI: > 100 µM
SK-MEL-2 melanoma
  TGI: > 100 µM
K-562 leukemia
  TGI: > 100 µM
HCC-2998 colon
  TGI: > 100 µM
A549 NSCLC
  TGI: > 100 µM
HT29 colon
  TGI: > 100 µM
RXF 393 renal
  TGI: > 100 µM
HCT-15 colon
  TGI: > 100 µM
SK-OV-3 ovarian
  TGI: > 100 µM
M14 melanoma
  TGI: > 100 µM
HCT-116 colon
  TGI: > 100 µM
PC-3 prostate
  TGI: > 100 µM
IGROV1 ovarian
  TGI: > 100 µM
NCI-H460 lung
  TGI: > 100 µM
UACC-62 melanoma
  TGI: > 100 µM
BT-549 breast
  TGI: > 100 µM
MDA-MB-231 breast
  TGI: > 100 µM
NCI-H226 lung
  TGI: > 100 µM
SF-295 CNS
  TGI: > 100 µM
NCI-H522 lung
  TGI: > 100 µM
U251 CNS
  TGI: > 100 µM
ACHN renal
  TGI: > 100 µM
SF-539 CNS
  TGI: > 100 µM
OVCAR-5 ovarian
  TGI: > 100 µM
HOP-92 NSCLC
  TGI: > 100 µM
MDA-MB-435
  TGI: > 100 µM
HL-60(TB) leukemia
  TGI: > 100 µM
SNB-75 CNS
  TGI: > 100 µM
SR leukemia
  TGI: > 100 µM
UACC-257 melanoma
  TGI: > 100 µM
SNB-19 CNS
  TGI: > 100 µM
RPMI-8226 leukemia
  TGI: > 100 µM
NCI/ADR-RES ovarian
  TGI: > 100 µM
SK-MEL-5 melanoma
  TGI: > 100 µM
OVCAR-8 ovarian
  TGI: > 100 µM
